Measurements as given in patent US20250333397A1 (REMIX THERAPEUTICS INC., priority 2021, published 2025).
Like-named read-outs stand apart in the source and are kept apart here.

Tests used:
Assay type in all cases: cell-based, human
Target C mRNA = experiment: RT-qPCR splicing assay panel, Target C canonical junction (CJ) mRNA; conditions: Homo sapiens
Summary of the method: (§1)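 24 h compound exposure of A673 or K562 cells at 37 °C, 10 uM top final concentration, 3-fold steps, DMSO ≤0.25%. Splice-isoform levels determined by qPCR on cDNA from lysates, run at least in duplicate; values expressed as RQ normalized to GAPDH, GUSB or PPIA and DMSO.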

HTT mRNA = experiment: RT-qPCR splicing assay, HTT canonical (CJ) and alternative (AJ) junction mRNA; conditions: Homo sapiens; for AC50: read-out: HTT AJ (AC50, increase in AJ mRNA)
Summary of the method: as §1

SMN2 mRNA = experiment: RT-qPCR splicing assay panel, SMN2 canonical junction (CJ) mRNA; conditions: Homo sapiens
Summary of the method: as §1

MYB mRNA = experiment: RT-qPCR splicing assay, MYB canonical (CJ) and alternative (AJ) junction mRNA; conditions: Homo sapiens; for AC50: read-out: MYB AJ (AC50, increase in AJ mRNA)
Summary of the method: as §1

[1] = canonical junction (CJ) mRNA, RT-qPCR panel, Table 4A, read-out: Target C, decrease in CJ mRNA levels, IC50
[2] = 24 h, Table 3A, A673 or K562 cells, 24 h treatment
[3] = 24 h, Table 3A, A673 or K562 cells, 24 h treatment, read-out: HTT CJ (IC50, decrease in CJ mRNA)
[4] = canonical junction (CJ) mRNA, RT-qPCR panel, Table 4A, read-out: HTT, decrease in CJ mRNA levels, IC50
[5] = canonical junction (CJ) mRNA, RT-qPCR panel, Table 4A, read-out: SMN2, decrease in CJ mRNA levels, IC50
[6] = 24 h, Table 3A, A673 or K562 cells, 24 h treatment, read-out: MYB CJ (IC50, decrease in CJ mRNA)
[7] = canonical junction (CJ) mRNA, RT-qPCR panel, Table 4A, read-out: MYB, decrease in CJ mRNA levels, IC50
[8] = Table 4B, gene panel, read-out: Target C (IC50, decrease in CJ mRNA levels)
[9] = 24 h, Table 3B, A673 or K562 cells, 24 h treatment
[10] = 24 h, Table 3B, A673 or K562 cells, 24 h treatment, read-out: HTT CJ (IC50, decrease in CJ mRNA)
[11] = Table 4B, gene panel, read-out: HTT (IC50, decrease in CJ mRNA levels)
[12] = Table 4B, gene panel, read-out: SMN2 (IC50, decrease in CJ mRNA levels)
[13] = 24 h, Table 3B, A673 or K562 cells, 24 h treatment, read-out: MYB CJ (IC50, decrease in CJ mRNA)
[14] = Table 4B, gene panel, read-out: MYB (IC50, decrease in CJ mRNA levels)

| SMILES | IC50 (Target C mRNA; [1]) [nM] | IC50 (HTT mRNA; [3]) [nM] | IC50 (HTT mRNA; [4]) [nM] | IC50 (SMN2 mRNA; [5]) [nM] | IC50 (MYB mRNA; [6]) [nM] | IC50 (MYB mRNA; [7]) [nM] | IC50 (Target C mRNA; [8]) [nM] | IC50 (HTT mRNA; [10]) [nM] | IC50 (HTT mRNA; [11]) [nM] | IC50 (SMN2 mRNA; [12]) [nM] | IC50 (MYB mRNA; [13]) [nM] | IC50 (MYB mRNA; [14]) [nM] | AC50 (HTT mRNA; [2]) [nM] | AC50 (MYB mRNA; [2]) [nM] | AC50 (HTT mRNA; [9]) [nM] | AC50 (MYB mRNA; [9]) [nM] |
| --- | --- | --- | --- | --- | --- | --- | --- | --- | --- | --- | --- | --- | --- | --- | --- | --- |
| CN(C1CCC1)[C@H]1CCN(c2ccc(-c3ccc(-c4cn[nH]c4)cc3O)nn2)C1 [Compound 294, 2-{6-[(3S)-3-[cyclobutyl(methyl)amino]pyrrolidin-1-yl]pyridazin-3-yl}-5-(1H-pyrazol-4-yl)phenol] | 100 to 1000 | < 100 | < 100 | < 100 | 100 to 1000 | 100 to 1000 | – | – | – | – | – | – | 100 to 1000 | 100 to 1000 | – | – |
| Cc1ncc(-c2ccc(-c3ccc(N4CC[C@@H](NCC5CC5)C4)nn3)c(O)c2)s1 [Compound 379, 2-{6-[(3R)-3-[(cyclopropylmethyl)amino]pyrrolidin-1-yl]pyridazin-3-yl}-5-(2-methyl-1,3-thiazol-5-yl)phenol] | < 100 | < 100 | < 100 | < 100 | < 100 | < 100 | – | – | – | – | – | – | < 100 | < 100 | – | – |
| Cc1ncc(-c2cc(O)c(-c3ccc(N4CC[C@@H](NC(C)(C)C)C4)nn3)cc2F)s1 [Compound 338, 2-{6-[(3R)-3-(tert-butylamino)pyrrolidin-1-yl]pyridazin-3-yl}-4-fluoro-5-(2-methyl-1,3-thiazol-5-yl) phenol] | < 100 | < 100 | < 100 | < 100 | < 100 | < 100 | – | – | – | – | – | – | < 100 | < 100 | – | – |
| Oc1cc(-c2ccc(-c3ccc(N4CC[C@@H](NC5CCC5)C4)nn3)c(O)c2)cnn1 [Compound 419, 5-(4-{6-[(3R)-3-(cyclobutylamino)pyrrolidin-1-yl]pyridazin-3-yl}-3-hydroxyphenyl)pyridazin-3-ol] | 1000 to 10000 | 100 to 1000 | 100 to 1000 | 100 to 1000 | 1000 to 10000 | 1000 to 10000 | – | – | – | – | – | – | 1000 to 10000 | > 10000 | – | – |
| Cc1nc2cc(O)c(-c3cnc(N4C[C@@H](C)N[C@@H](C5CC5)C4)nn3)cc2o1 [Compound 870] | – | – | – | – | – | – | 1000 to 10000 | 1000 to 10000 | 1000 to 10000 | 1000 to 10000 | 1000 to 10000 | 1000 to 10000 | – | – | 1000 to 10000 | 1000 to 10000 |
| CC(=O)c1cc(-c2ccc(-c3ccc(N4CCC(NC5CCC5)C4)nn3)c(O)c2)cnn1 (centres unmarked) [Compound 445] | > 10000 | > 10000 | > 10000 | > 10000 | > 10000 | > 10000 | – | – | – | – | – | – | > 10000 | > 10000 | – | – |
| Cc1ncc(-c2cc(O)c(-c3ccc(N4CCC(NC5CCOC5)C4)nn3)cc2F)s1 (centres unmarked) [Compound 350, 4-fluoro-5-(2-methyl-1,3-thiazol-5-yl)-2-{6-[3-(oxolan-3-ylamino)pyrrolidin-1-yl]pyridazin-3-yl}phenol] | < 100 | < 100 | < 100 | < 100 | < 100 | < 100 | – | – | – | – | – | – | < 100 | 100 to 1000 | – | – |
| COc1cc(-c2ccc(-c3ccc(N4CCC(CNC(C)(C)C)C4)nn3)c(O)c2)cnn1 (centres unmarked) [Compound 351, 2-(6-{3-[(tert-butylamino)methyl]pyrrolidin-1-yl}pyridazin-3-yl)-5-(6-methoxypyridazin-4-yl)phenol] | 100 to 1000 | < 100 | < 100 | 100 to 1000 | 100 to 1000 | 100 to 1000 | – | – | – | – | – | – | 100 to 1000 | 1000 to 10000 | – | – |
| COc1cc(-c2ccc(-c3ccc(N4CCC(NC5CCC5)C4)nn3)c(O)c2)ccn1 (centres unmarked) [Compound 305] | 1000 to 10000 | 100 to 1000 | 100 to 1000 | 100 to 1000 | 1000 to 10000 | 1000 to 10000 | – | – | – | – | – | – | 100 to 1000 | 1000 to 10000 | – | – |

More lines, main results first:

| IC50 (Target C mRNA; [1]) [nM] | IC50 (HTT mRNA; [3]) [nM] | IC50 (HTT mRNA; [4]) [nM] | IC50 (SMN2 mRNA; [5]) [nM] | IC50 (MYB mRNA; [6]) [nM] | IC50 (MYB mRNA; [7]) [nM] | IC50 (Target C mRNA; [8]) [nM] | IC50 (HTT mRNA; [10]) [nM] | IC50 (HTT mRNA; [11]) [nM] | IC50 (SMN2 mRNA; [12]) [nM] | IC50 (MYB mRNA; [13]) [nM] | IC50 (MYB mRNA; [14]) [nM] | SMILES | AC50 (HTT mRNA; [2]) [nM] | AC50 (MYB mRNA; [2]) [nM] | AC50 (HTT mRNA; [9]) [nM] | AC50 (MYB mRNA; [9]) [nM] |
| --- | --- | --- | --- | --- | --- | --- | --- | --- | --- | --- | --- | --- | --- | --- | --- | --- |
| < 100 | < 100 | < 100 | < 100 | 1000 to 10000 | 1000 to 10000 | – | – | – | – | – | – | Cc1ncc(-c2cc(O)c(-c3ccc(N4CC[C@H](NCC5CCC5)C4)nn3)cc2F)s1 [Compound 411] | < 100 | 100 to 1000 | – | – |
| 100 to 1000 | 100 to 1000 | 100 to 1000 | 100 to 1000 | 1000 to 10000 | 1000 to 10000 | – | – | – | – | – | – | COc1cc(-c2cc(O)c(-c3cnc(N4CC[C@H](NC5CCC5)C4)nn3)cc2F)cnn1 [Compound 321, 2-{3-[(3S)-3-(cyclobutylamino)pyrrolidin-1-yl]-1,2,4-triazin-6-yl}-4-fluoro-5-(6-methoxypyridazin-4-yl)phenol] | 100 to 1000 | 1000 to 10000 | – | – |
| 100 to 1000 | 100 to 1000 | 100 to 1000 | < 100 | 100 to 1000 | 100 to 1000 | – | – | – | – | – | – | Cn1cc2cc(-c3ccc(-c4ccc(N5CCC(NC6CCC6)C5)nn4)c(O)c3)ncc2n1 (centres unmarked) [Compound 320] | 100 to 1000 | 100 to 1000 | – | – |
| – | – | – | – | – | – | 1000 to 10000 | 100 to 1000 | 100 to 1000 | 100 to 1000 | > 10000 | > 10000 | Cn1ccc2cc(O)c(-c3ccc(N4CC[C@H](NC(C)(C)C)C4)nn3)cc2c1=O [Compound 873] | – | – | 1000 to 10000 | 1000 to 10000 |
| 100 to 1000 | 100 to 1000 | 100 to 1000 | 100 to 1000 | 100 to 1000 | 100 to 1000 | – | – | – | – | – | – | COc1cc(-c2ccc(-c3ccc(N4CC[C@H](N[C@H]5C[C@@H](F)C5)C4)nn3)c(O)c2)ncn1 [Compound 407, 5-(6-methoxypyrimidin-4-yl)-2-{6-[(3R)-3-{[(1s,3s)-3-fluorocyclobutyl]amino}pyrrolidin-1-yl]pyridazin-3-yl}phenol] | 100 to 1000 | 100 to 1000 | – | – |
| < 100 | < 100 | < 100 | < 100 | < 100 | < 100 | – | – | – | – | – | – | COc1cc(-c2ccc(-c3ccc(N4CC[C@H](N(C)C(C)(C)C)C4)nn3)c(O)c2)cnn1 [Compound 337, 2-{6-[(3S)-3-[tert-butyl(methyl)amino]pyrrolidin-1-yl]pyridazin-3-yl}-5-(6-methoxypyridazin-4-yl)phenol] | < 100 | < 100 | – | – |
| 1000 to 10000 | 100 to 1000 | 100 to 1000 | 100 to 1000 | 1000 to 10000 | 1000 to 10000 | – | – | – | – | – | – | Cc1nnc(-c2cc(O)c(-c3ccc(N4CC[C@H](NC5CCC5)C4)nn3)cc2F)s1 [Compound 358] | 1000 to 10000 | 1000 to 10000 | – | – |
